This note sets out measurements from patent US7211566B2 (Universite De Sherbrooke, priority 2003, dated 2007).

Molecules are shown by their SMILES. Square brackets hold non-standard residues; d marks the D form. Peptide text beside a SMILES is read from it. Oic = O=C(O)[C@@H]1C[C@@H]2CCCC[C@@H]2N1; d2Nal = N[C@H](Cc1ccc2ccccc2c1)C(=O)O; αMeF = C[C@](N)(Cc1ccccc1)C(=O)O; Orn = NCCC[C@H](N)C(=O)O

Common to all, as to assay type: in vivo
Series [1] deals with STZ diabetic mice. The experiment in a line: Tail flick test, type-1 diabetic hyperalgesia. The settings on record: STZ diabetic mice, i.p., at time of maximal inhibition (10 min). The procedure: (§1) Male CD-1 mice weighting between 25–30 g (Charles River Breeding Laboratory, St-Constant, QC, Canada) were used. The mice were housed four by cage with free access to food and water. They were maintained under conditions of standard lighting, (alternating 12-h light/dark cycle), temperature (22±0.5° C.) and humidity (60±10%) with food and water available at libitum. Animals were used only once in a given experiment. Experiments were conducted between 10:00 and 18:00 h.
(§2) Streptozotocin (Pharmacia & Upjohn Incorporation, Mississauga, ON, Canada) was dissolved in saline at a pH of 4.5 and administered to mice i.p. The BKB1 agonist desArg^9BK and compound c were dissolved in saline and administered to mice i.p.
(§3) Insulin-dependent diabetes mellitus (IDDM) was induced in mice using STZ. Male CD-1 mice were given a single high i.p. dose of STZ (200 mg/kg) (McEvoy et al., 1984, J Clin Invest 74, 715–722). […] Blood glucose levels were determined with an automatic analyzer (Glucometer Elite XL, Bayer Incorporation, Toronto, Ontario, Canada) using glucose oxidase/potassium ferricyanide reagent strips. […]
The tail flick test of D'Amour and Smith (D'Amour and Smith, 1941, J Pharmacol Exp Ther 72, 74–79) modified for mice was used. […] The radiant light is focussed on a blackened spot in the mid region of the animal's tail (2–3 cm from the tip of the tail) and the latency between the application of the stimulation light and the flicking of the animal's tail is recorded. When the animal flicks its tail, its exposes a photocell in the apparatus immediately below the tail and the instrument is automatically stopped and the time is recorded. […]
(§4) The effect of the selected drugs on nociception was determined by converting the hot plate, the plantar stimulation, the tail immersion or the tail flick responses from latencies into MPE (Maximum Percent Effect) according to the following equation (Bhargava and Zhao, 1996, Neuropeptides, 30, 219–223): […]
A general note: In hot-plate and tail-flick tests a longer latency is read as antinociception.

The nature of series [2]: Circulatory half-life in rat plasma after bolus i.v. administration. The note with it: iv, 2.5 mg/kg body weight, direct i.v. jugular administration, anaesthetized rats. As to the method: Rats were anesthetized with the administration of ketamine/xylazine (100 mg/ml:0.1 ml/100 g, i.p.). For ex vivo analysis, blood was collected by cardiac puncture and placed into 5 ml vacutainer tubes containing 0.5 ml of 0.1 M Na2CO3 (for blood and plasma). For in vivo analysis, the drug was administered by i.v. bolus (2.5 mg/kg body weight) in the jugular vein of anesthetized rats and blood was collected as described above after 2, 5, 15, 30, 60, 120, 180 and 240 min.
Quantitative analysis of the extracted compound and standard controls was carried out using an Agilent reverse-phase HPLC (model 1100) coupled to a 4.6×150 mm Zorbax 300SB-C18 column (5 μm particle size) and equipped with a diode array detector. The peptides were eluted at a flow rate of 0.7 ml/min. with a linear gradient ranging from 5 to 65% of acetonitrile/TFA 0.05%/water over 32 min. at 25° C. The elution positions and quantification of compounds were determined by following the absorbance at 226 nm.
Concentrations of the peak's products were estimated using a computer software program (Chemstation for LC 3D, Agilent) that controlled all the chromatography operations.

The test system of series [3] is STZ diabetic mice. The experiment in a line: Hot plate test, type-1 diabetic hyperalgesia. The note with it: STZ diabetic mice, i.p., at time of maximal inhibition (20 min). As to the method: as §1, §2, §3
The hot plate test was adapted from the technique of Eddy and Leimbach (1953, J Pharmacol Exp Ther 107, 385–389). […] When the pain threshold is reached the animal starts to react by licking its hind paw or to jump, and the reaction time is recorded with a built-in timer, with a maximum cut-off time of 30 s to avoid tissue damage. […]
as §4
In all tests, pre-treatment latencies were determined three times with an interval of 24 h starting three days before the injection of STZ or saline and the mean was calculated in order to obtain stable pre-drug response latency. […]

What is called half-life is the time in which the quantity being followed falls by half.

With `CC[C@H](C)[C@H](NC(=O)[C@@H](Cc1ccc2ccccc2c1)NC(=O)[C@H](CO)NC(=O)[C@](C)(Cc1ccccc1)NC(=O)CNC(=O)[C@@H]1CCCN1C(=O)[C@@H]1C[C@@H]2CCCC[C@@H]2N1C(=O)[C@H](CCCNC(=N)N)NC(=O)[C@H](CCCN)NC(C)=O)C(=O)O` [compound c, Ac-Orn[Oic^2,(α-Me)Phe^5,D-βNal^7,Ile^8]desArg^9BK] (Ac-[Orn]R[Oic]PG[αMeF]S[d2Nal]I-OH), the ID50 in the series with STZ diabetic mice [1] stood at 0.072 ± 0.002 mg/kg; with STZ diabetic mice [3] it was 0.078 ± 0.003 mg/kg. Moreover, in series [2], the half-life was above 2 h.
